Reference: paper PMC4007584 (Journal of biomolecular screening, 2013)
Counter-ions that a name gives are not always drawn.

What was measured:
[1] = tested on: R6/2 mice; settings: IP beginning at 4 weeks of age; cited from earlier work
[2] = target: catalytic domain of PDE10A2 (Homo sapiens, UniProt Q9Y233); test: PDE10A calorimetric activity assay; format: biochemical
[3] = tested on: PDE10A; settings: literature; cited from earlier work

Chain of catalytic domain of PDE10A2 (Q9Y233 715-1055 limits assumed): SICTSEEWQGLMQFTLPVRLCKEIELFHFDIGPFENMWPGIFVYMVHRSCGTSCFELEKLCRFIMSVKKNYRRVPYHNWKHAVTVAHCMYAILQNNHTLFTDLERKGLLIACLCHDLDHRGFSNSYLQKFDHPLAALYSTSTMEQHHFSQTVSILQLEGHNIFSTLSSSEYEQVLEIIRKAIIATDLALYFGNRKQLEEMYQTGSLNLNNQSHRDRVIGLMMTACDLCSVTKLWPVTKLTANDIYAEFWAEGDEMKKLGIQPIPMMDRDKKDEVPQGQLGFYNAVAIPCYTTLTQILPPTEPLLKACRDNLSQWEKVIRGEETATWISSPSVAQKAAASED

| Ligand Efficiency PDE10A ([2]; Table 1, from enthalpy array KI) | Compound | reduction of the loss of striatal size [1] | Ki [2] | inhibition mechanism, PDE10A [2] | IC50 [3] |
| --- | --- | --- | --- | --- | --- |
|  | FC(F)(F)Cn1cc(-c2ccncc2)c(-c2ccc(OCc3ccc4ccccc4n3)cc2)n1 [TP-10] | 50% |  |  |  |
| 0.41 kcal mol^−1 HA^−1 | CC(C)Cn1c(=O)n(C)c(=O)c2[nH]cnc21 [IBMX, 3-isobutyl-1-methylxanthine] |  | 17 ± 6.6 µM | competitive inhibition | 11 µM |
|  | COc1ccc(Cc2nccc3cc(OC)c(OC)cc23)cc1OC [Papaverine, papaverine hydrochloride] |  |  | competitive inhibition | 0.095 µM |
|  | CC(=O)CCCCn1c(=O)c2c(ncn2C)n(C)c1=O [Pentoxifylline, pentoxifylline] |  | 200 ± 60 µM | competitive inhibition |  |
